This assay deals with lung cancer cell line NCI-H82. The assay is described as follows: Cell proliferation assay, NCI-H82 (CELL-TITER GLO). It is filed as cell-based. The conditions noted are these: Homo sapiens, NCI-H82, 72 h, NCI-H82 cells, 72 h incubation, cell viability by CELL-TITER GLO, top concentration 1 μM; read-out: EC50, Inhibition of NCl-H82 Cell Proliferation. As to the method:
The activity of a compound was determined in a cell proliferation assay using the lung cancer cell line NCI-H82. Cells (1,000 cells per well) were cultured with RPMI1640 in a 384-well tissue culture plate. After incubated overnight, the compound was added at predetermined concentrations, starting with 1 μM and followed by a 3-fold serial dilution. After the cells were incubated for 72 h, cell viability was determined using a CELL-TITER GLO assay. The CELL-TITER GLO reagent (25 μL) was added to each well and the luminescence was measured by a multimode microplate reader after a brief period of shaking. EC50 values were determined for the compound. The results are summarized in Table 1, wherein A represents a value no greater than 200 nM, B represents a value greater than 200 nM but no greater than 1 μM, C represents a value greater than 1 μM but no greater than […], and D represents a value greater than 5 μM.
For `C#Cc1nc(NC(=O)N[C@H](c2ccc(-c3cccc4ncsc34)cc2)C(C)(C)O)cs1` [Compound A203, (R)-1-(1-(4-(Benzo[d]thiazol-7-yl)phenyl)-2-hydroxy-2-methylpropyl)-3-(2-ethynylthiazol-4-yl)urea], the EC50 is at most 200 nM. The figure for `C#Cc1nc(NC(=O)N[C@@H](COC(N)=O)c2ccc(-c3ccccc3C3(C#N)CC3)cn2)cs1` [Compound A60, (R)-2-(5-(2-(1-Cyanocyclopropyl)phenyl)pyridin-2-yl)-2-(3-(2-ethynylthiazol-4-yl)ureido)ethyl carbamate] is at most 200 nM; for `C#Cc1nc(NC(=O)NC(COC(N)=O)c2ccc(-c3cccc(C4(C#N)CC4)c3)cc2)cs1` (stereo not drawn) [Compound A222] it is at most 200 nM; for `C#Cc1nc(NC(=O)N[C@@H](CO)c2ccc(-c3cccc4ncsc34)cc2)cs1` [Compound A40, (R)-1-(1-(4-(Benzo[d]thiazol-7-yl)phenyl)-2-hydroxyethyl)-3-(2-ethynylthiazol-4-yl)urea] it is at most 200 nM. The figure for `C#Cc1nc(NC(=O)N[C@H](CO)C(=O)N2CC(c3ccccc3C#N)C2)cs1` [Compound A144, (R)-1-(1-(3-(2-Cyanophenyl)azetidin-1-yl)-3-hydroxy-1-oxopropan-2-yl)-3-(2-ethynylthiazol-4-yl)urea] is 200 to 1000 nM; for `C#Cc1nc(NC(=O)N[C@@H](CO)c2ccc(C3CCCCN3C(C)=O)cc2)cs1` (stereo partly drawn) [Compound A143, 1-((1R)-1-(4-(1-Acetylpiperidin-2-yl)phenyl)-2-hydroxyethyl)-3-(2-ethynyl-thiazol-4-yl)urea] it is at most 200 nM; for `C#Cc1nc(NC(=O)N(C)[C@@H](CO)c2ccc(-c3cccc(N4CCCC4)n3)cn2)cs1` [Compound A91, (R)-3-(2-Ethynylthiazol-4-yl)-1-(2-hydroxy-1-(6-(pyrrolidin-1-yl)-[2,3′-bipyridin]-6′-yl)ethyl)-1-methylurea] it is at most 200 nM. The figure for `C#Cc1nc(NC(=O)Nc2ncnc3c(F)c(-c4cccc5ncsc45)c(Cl)cc23)cs1` [Compound A165, 1-(7-(Benzo[d]thiazol-7-yl)-6-chloro-8-fluoroquinazolin-4-yl)-3-(2-ethynyl-thiazol-4-yl)urea] is at most 200 nM; for `C#Cc1nc(NC(=O)N[C@@H](CO)c2ccc(N3CCC(F)(F)C3)cc2)cs1` [Compound A130, (R)-1-(1-(4-(3,3-Difluoropyrrolidin-1-yl)phenyl)-2-hydroxyethyl)-3-(2-ethynyl-thiazol-4-yl)urea] it is at most 200 nM; for `C#Cc1nc(NC(=O)N2CCN(c3ccc(-c4cccc5nc(N)sc45)cc3)CC2)cs1` [Compound B27, 4-(4-(2-Aminobenzo[d]thiazol-7-yl)phenyl)-N-(2-ethynylthiazol-4-yl)piperazine-1-carboxamide] it is at most 200 nM.

With `C#Cc1nc(NC(=O)N[C@@H](CO)C(=O)N2CCN(c3ccccc3C#N)CC2)cs1` [Compound A149, (S)-1-(1-(4-(2-Cyanophenyl)piperazin-1-yl)-3-hydroxy-1-oxopropan-2-yl)-3-(2-ethynylthiazol-4-yl)urea], the EC50 is at most 200 nM. Turning to `C#Cc1nc(NC(=O)N[C@@H](CO)c2ccc(N3CCOCC3=O)cc2)cs1` [Compound A134, (R)-1-(2-Ethynylthiazol-4-yl)-3-(2-hydroxy-1-(4-(3-oxomorpholino)phenyl)-ethyl)urea], the EC50 was in the range of 200 to 1000 nM. With `C#Cc1nc(NC(=O)N[C@@H](CO)c2ccc(-c3cccc4ncsc34)cc2)c(C)s1` [Compound A119, (R)-1-(1-(4-(Benzo[d]thiazol-7-yl)phenyl)-2-hydroxyethyl)-3-(2-ethynyl-5-methylthiazol-4-yl)urea], the EC50 was at most 200 nM. Under `C#Cc1nc(NC(=O)N[C@@H](CO)c2ccc(-c3cccnc3C3(C#N)CC3)c(Cl)c2)cs1` [Compound A65, (R)-1-(1-(3-Chloro-4-(2-(1-cyanocyclopropyl)pyridin-3-yl)phenyl)-2-hydroxy-ethyl)-3-(2-ethynylthiazol-4-yl)urea] stands at most 200 nM; under `C#Cc1nc(NC(=O)N[C@@H](CO)C(=O)N2CCC3(CC2)CC3)cs1` [Compound A152, (S)-1-(2-Ethynylthiazol-4-yl)-3-(3-hydroxy-1-oxo-1-(6-azaspiro[2.5]octan-6-yl)propan-2-yl)urea], at most 200 nM; under `C#Cc1nc(NC(=O)Nc2ncnc3cc(-c4cccnc4C4(C#N)CC4)ccc23)cs1` [Compound A166, 1-(7-(2-(1-Cyanocyclopropyl)pyridin-3-yl)quinazolin-4-yl)-3-(2-ethynylthiazol-4-yl)urea], at most 200 nM.

`C#Cc1nc(NC(=O)N[C@@H](C(N)=O)c2ccc(-c3cccc4ncsc34)cc2)cs1` [Compound A210, (R)-2-(4-(Benzo[d]thiazol-7-yl)phenyl)-2-(3-(2-ethynylthiazol-4-yl)ureido)-acetamide]: the EC50 was at most 200 nM.

Regarding `C#Cc1nc(NC(=O)N[C@@H](CS(N)(=O)=O)c2ccc(-c3ccc(F)c4ncsc34)c(Cl)c2)cs1` [Compound A115, (R)-2-(3-Chloro-4-(4-fluorobenzo[d]thiazol-7-yl)phenyl)-2-(3-(2-ethynylthiazol-4-yl)ureido)ethane-1-sulfonamide], the EC50 was at most 200 nM. Under `C#Cc1nc(NC(=O)N(C)[C@@H](CO)c2ccc(-c3ccc(F)cc3C3CC3(F)F)cn2)cs1` (stereo partly drawn) [Compound A82, 1-((1R)-1-(5-(2-(2,2-Difluorocyclopropyl)-4-fluorophenyl)pyridin-2-yl)-2-hydroxyethyl)-3-(2-ethynylthiazol-4-yl)-1-methylurea] stands at most 200 nM; under `C#Cc1nc(NC(=O)N[C@@H](C(=O)NC)c2ccc(-c3cccc(C(=O)CC)c3)cc2)cs1` [Compound A219, (R)-2-(3-(2-Ethynylthiazol-4-yl)ureido)-N-methyl-2-(3′-propionyl-[1,1′-biphenyl]-4-yl)acetamide], at most 200 nM; under `C#Cc1nc(NC(=O)N2CCN(c3ccc(-c4cccc(N5CCCC5)c4)cc3)C[C@@H]2CO)cs1` [Compound B54, (R)—N-(2-Ethynylthiazol-4-yl)-2-(hydroxymethyl)-4-(3′-(pyrrolidin-1-yl)-[1,1′-biphenyl]-4-yl)piperazine-1-carboxamide], at most 200 nM. Under `C#Cc1nc(NC(=O)N[C@@H](CO)c2ccc(N3CCCCC3)cc2)cs1` [Compound A195, (R)-1-(2-Ethynylthiazol-4-yl)-3-(2-hydroxy-1-(4-(piperidin-1-yl)phenyl)ethyl)-urea] stands at most 200 nM.

As for `C#Cc1nc(NC(=O)N[C@@H](CO)C(=O)N2CCC(N3CC(F)(F)C3)CC2)cs1` [Compound A159, (S)-1-(1-(4-(3,3-Difluoroazetidin-1-yl)piperidin-1-yl)-3-hydroxy-1-oxopropan-2-yl)-3-(2-ethynylthiazol-4-yl)urea], the EC50 is above 5000 nM. The figure for `C#Cc1nc(NC(=O)N[C@@H](CO)c2ccc(-c3ccc(F)cc3C3CC3(F)F)cn2)cs1` (stereo partly drawn) [Compound A81, 1-((1R)-1-(5-(2-(2,2-Difluorocyclopropyl)-4-fluorophenyl)pyridin-2-yl)-2-hydroxyethyl)-3-(2-ethynylthiazol-4-yl)urea] is at most 200 nM; for `C#Cc1nc(NC(=O)N[C@@H](CO)c2ccc(N3CCCCC3)cn2)cs1` [Compound A135, (R)-1-(2-Ethynylthiazol-4-yl)-3-(2-hydroxy-1-(5-(piperidin-1-yl)pyridin-2-yl)-ethyl)urea] it is at most 200 nM.

In the case of `C#Cc1nc(NC(=O)N[C@@H](COC(=O)[C@@H](N)C(C)C)c2ccc(-c3cccc4ncsc34)cc2)cs1` [Compound A116, (R)-2-(4-(Benzo[d]thiazol-7-yl)phenyl)-2-(3-(2-ethynylthiazol-4-yl)ureido)ethyl L-valinate], the EC50 is at most 200 nM. For the molecule `C#Cc1nc(NC(=O)N[C@@H](CO)c2ccc(-c3ccccc3C#N)cc2)cs1` [Compound A44, (R)-1-(1-(2′-Cyano-[1,1′-biphenyl]-4-yl)-2-hydroxyethyl)-3-(2-ethynylthiazol-4-yl)urea], the EC50 is at most 200 nM. The figure for `C#Cc1nc(NC(=O)N[C@@H](CO)c2ccc(-c3cccnc3N(C)C)cc2)cs1` [Compound A98, (R)-1-(1-(4-(2-(Dimethylamino)pyridin-3-yl)phenyl)-2-hydroxyethyl)-3-(2-ethynylthiazol-4-yl)urea] is at most 200 nM; for `C#Cc1nc(NC(=O)N[C@@H](CO)c2ccc(-c3cccc4ncsc34)cc2)ns1` [Compound A122, (R)-1-(1-(4-(Benzo[d]thiazol-7-yl)phenyl)-2-hydroxyethyl)-3-(5-ethynyl-1,2,4-thiadiazol-3-yl)urea] it is 200 to 1000 nM. Under `C#Cc1nc(NC(=O)N(CCS(C)(=O)=O)Cc2ccc(-c3cccc4ncsc34)cc2)cs1` [Compound A207, 1-(4-(Benzo[d]thiazol-7-yl)benzyl)-3-(2-ethynylthiazol-4-yl)-1-(2-(methyl-sulfonyl)ethyl)urea] stands at most 200 nM; under `C#Cc1nnc(NC(=O)N[C@@H](CO)c2ccc(-c3cccc4ccnc(O)c34)cc2)s1` [Compound A108, (R)-1-(5-Ethynyl-1,3,4-thiadiazol-2-yl)-3-(2-hydroxy-1-(4-(1-hydroxyisoquinolin-8-yl)phenyl)ethyl)urea], 200 to 1000 nM. The figure for `C#Cc1nc(NC(=O)NCc2ccc(-c3cccc4ncsc34)cc2C#N)cs1` [Compound A177, 1-(4-(Benzo[d]thiazol-7-yl)-2-cyanobenzyl)-3-(2-ethynylthiazol-4-yl)urea] is 200 to 1000 nM; for `C#Cc1nc(NC(=O)N[C@@H](COC(N)=O)c2ccc(-c3cccc4cnccc34)cc2)cs1` [Compound A229, (R)-2-(3-(2-Ethynylthiazol-4-yl)ureido)-2-(4-(isoquinolin-5-yl)phenyl)ethyl carbamate] it is at most 200 nM.

Values taken from patent publication US20240101546A1, “HETEROARYL-ACETYLENES, PHARMACEUTICAL COMPOSITIONS THEREOF, AND THEIR THERAPEUTIC APPLICATIONS” (Eubulus Biotherapeutics Inc., priority 2020, published 2024).
